Here are results for two molecules from patent publication US8569055B2, “Identification and characterization of cancer stem cells and methods of use” (City of Hope, priority 2006, dated 2013).

Holding throughout (format): cell-based, human
Experiment [1] has as its system non-sorted NCI-H211, NCI-H69AR, NCI-H1417 cells. Put plainly: Cytotoxicity assay (Guava ViaCount), 5-FU, non-sorted SCLC cell lines. The conditions noted are these: 5-FU up to 200 μg/ml, 72 hours. As to the method:
(§1) FIG. 2: Cytotoxic effect of 5-FU on non-sorted and sorted (uPAR-positive and uPAR-negative populations) derived from SCLC cell lines. (A) […] cells (H211, H69AR, H1417) were placed in wells of a 48-well plate in triplicates and incubated for 72 hr in the presence of varying concentrations of 5-FU. (B) SCLC cell lines were FACS sorted after staining with anti-uPAR antibodies and were plated at the same seeding density ([…]/well of 96-well plate) and treated with 5-FU at […] for 72 hr. Cell survival was evaluated after adding Guava ViaCount reagent and counting viable and dead cells. Only viable cells were included in data analysis, and 100% viability was defined as number of viable cells cultured in absence of 5-FU. […] The data points represent averages±SD of three independent experiments. […]
(§2) Cells were counted, placed into 96-well plates (4×10^3 cells/well, in triplicate), and treated with 5-fluorouracil (5-FU) at a final concentration of 0, 3, 10, 100, or 200 μg/ml. After incubation for 72 hours, both viable and dead cells were counted using the Guava ViaCount assay. […] Fluorescence of the dyes allows quantitative assessment of both viable and non-viable cells in suspension. […]

The subject of experiment [2] is uPAR-positive sorted NCI-H211 cells. The experiment is described as follows: Cytotoxicity assay (Guava ViaCount), 5-FU, sorted uPAR-positive NCI-H211. The conditions noted are these: uPAR-positive sorted NCI-H211, 72 hours. As to the method:
as §1, §2

Experiment [3] relates to uPAR-positive sorted NCI-H1417 cells. Put plainly: Cytotoxicity assay (Guava ViaCount), 5-FU, sorted uPAR-positive NCI-H1417. The conditions noted are these: uPAR-positive sorted NCI-H1417, 72 hours. As to the method:
as §1, §2

Experiment [4] deals with uPAR-positive NCI-H69AR cells. Put plainly: Cytotoxicity assay (Guava ViaCount), 5-FU, sorted uPAR-positive NCI-H69AR. The note with it: 72 hours. As to the method:
as §1, §2

Experiment [5] has as its system uPAR-negative NCI-H69AR cells. Put plainly: Cytotoxicity assay (Guava ViaCount), 5-FU, sorted uPAR-negative NCI-H69AR. The conditions noted are these: 72 hours. As to the method: as §1, §2
The test system of experiment [6] is NSC F3 stem cell. The experiment is described as follows: Inhibition of stem cell migration by uPAR inhibitors, in vitro migration assay. The note with it: inhibitor applied to lower chamber of migration assay system. The source says:
FIG. 10: Inhibition of NSC F3 stem cell migration by anti-uPAR antibodies and bikunin.
The role of the uPA/uPAR system in stem cell migration was investigated using the immortalized neural stem cell line (NSC) HB1.F3.C1 and bone marrow-derived mesenchymal stem cells (MSC) (passages 5-6) for in vitro cell migration assays. Five cancer cell lines expressing high levels of uPAR (SK-N-AS, U251, PC-3, MDA-MB-231, and CRL-5904) and five cancer cell lines expressing low levels of uPAR (COLO-320, NB-1691, CRL-5824, CRL-5869, and MCF-7) as determined in Example 6 were utilized for this experiment.
The effect of uPAR inhibitors on stem cell migration was examined in order to verify that increased stem cell migration to tumor cells expressing high levels of uPAR was dependent on uPAR. Bikunin, a physiological inhibitor of uPA, and various anti-uPAR antibodies were applied to the lower chamber of the migration assay system.

As to `O=c1[nH]cc(F)c(=O)[nH]1` [5-FU, 5-fluorouracil], the cells killed in experiment [1] is listed as 40-80%; in experiment [2], 40-50%; in experiment [3] it was 40-50%; in experiment [4] (10 μg/ml 5-FU) it was 30%; in experiment [5] (10 μg/ml 5-FU), 85%. Also, the killing effect entry in experiment [4] (200 μg/ml 5-FU) and in experiment [5] (200 μg/ml 5-FU) was “approximately 100%” throughout.

B1: Bikunin: a physiological inhibitor of uPA (protein, UniProt P02760 206-352, looked up)
Inter-alpha-trypsin inhibitor …: AVLPQEEEGSGGGQLVTEVTKKEDSCQLGYSAGPCMGMTSRYFYNGTSMACETFQYGGCMGNGNNFVTEKECLQTCRTVAACNLPIVRGPCRAFIQLWAFDAVKGKCVLFPYGGCQGNGNKFYSEKECREYCGVPGDGDEELLRFSN
modifications: Inter-alpha-trypsin inhibitor light chain
In the case of B1, in experiment [6], the “inhibition of stem cell migration” value is “effectively inhibited stem cell migration”.
